What was measured:
Human NHE3 = target: T1, Human NHE3 (Homo sapiens, UniProt P48764); assay: Cell-based NHE3 activity under prompt conditions (OK cells, BCECF pH recovery), human NHE3; conditions: prompt conditions
T1 construct: expressed in transfected cells; host or cells: Opossum kidney (OK) cells (ATCC), electroporation
T1 sequence (P48764 26-834): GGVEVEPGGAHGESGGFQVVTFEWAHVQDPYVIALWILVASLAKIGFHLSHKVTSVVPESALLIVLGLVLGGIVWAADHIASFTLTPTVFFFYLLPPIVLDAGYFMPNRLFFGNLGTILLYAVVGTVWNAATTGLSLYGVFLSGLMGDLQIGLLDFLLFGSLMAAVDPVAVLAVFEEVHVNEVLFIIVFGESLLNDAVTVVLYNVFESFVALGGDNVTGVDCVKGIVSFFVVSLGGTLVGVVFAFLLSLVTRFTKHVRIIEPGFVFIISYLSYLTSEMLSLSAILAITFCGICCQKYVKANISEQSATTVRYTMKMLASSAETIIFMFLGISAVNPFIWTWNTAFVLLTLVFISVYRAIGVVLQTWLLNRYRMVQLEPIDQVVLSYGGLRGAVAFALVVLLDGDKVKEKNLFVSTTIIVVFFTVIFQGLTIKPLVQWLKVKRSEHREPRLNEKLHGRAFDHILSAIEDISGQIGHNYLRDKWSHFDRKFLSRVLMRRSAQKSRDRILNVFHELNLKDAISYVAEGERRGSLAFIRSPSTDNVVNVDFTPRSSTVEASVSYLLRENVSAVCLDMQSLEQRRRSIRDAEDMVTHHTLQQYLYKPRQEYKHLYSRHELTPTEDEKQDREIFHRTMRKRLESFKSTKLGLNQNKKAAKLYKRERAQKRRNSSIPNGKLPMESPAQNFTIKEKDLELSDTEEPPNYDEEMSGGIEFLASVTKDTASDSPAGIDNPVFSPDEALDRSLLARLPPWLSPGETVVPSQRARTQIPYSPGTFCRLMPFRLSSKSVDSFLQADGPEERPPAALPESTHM
How it was run: (§1)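 Fluorometric NHE3 antiport assay in opossum kidney cells carrying rat or human NHE3, using BCECF pH recovery after NH4Cl-prepulse acid loading. pIC50 values derive from initial rates averaged across at least two replicates.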

[1] = tested on: absorption of sodium from the intestinal lumen; assay: Fecal form score (FFS) 16 h after oral dose in rats; format: in vivo, rat; conditions: oral gavage, 16 h post-dose, scale 1-5
How it was run: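 Fecal form was scored at 16 h post-dose on a 1–5 wetness scale (normal pellet to liquid stream), with two independent observations averaged across six rats per group. Animals were 8-week-old Sprague-Dawley rats given test compound or water orally in the late afternoon and kept in metabolic cages.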

[2] = tested on: absorption of sodium from the intestinal lumen; assay: Inhibition of intestinal sodium absorption: urinary sodium (uNa) 16 h after single oral dose in rats; format: in vivo, rat; conditions: oral gavage, 16 h post-dose
How it was run: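 Urinary sodium mass over the 16 h after one oral gavage dose, measured by cation-exchange ion chromatography, reported as percent of water-vehicle group; ANOVA plus Dunnett's post hoc test. Groups of six 8-week-old Sprague-Dawley rats, housed individually in metabolic cages post-dose, fed and watered freely.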

[3] = tested on: phosphorus and calcium levels in the urine of rats; assay: Urinary excretion of phosphate and calcium in rats (16 h overnight urine); format: in vivo, rat; conditions: rats, oral gavage, 16 h post-dose
Rat NHE3 = target: T2, Rat NHE3 (Rattus norvegicus, UniProt P26433); assay: Cell-based NHE3 activity under prompt conditions (OK cells, BCECF pH recovery), rat NHE3; conditions: prompt conditions
T2 construct: expressed in transfected cells; host or cells: Opossum kidney (OK) cells (ATCC), electroporation
How it was run: as §1

T2 sequence (P26433 29-831): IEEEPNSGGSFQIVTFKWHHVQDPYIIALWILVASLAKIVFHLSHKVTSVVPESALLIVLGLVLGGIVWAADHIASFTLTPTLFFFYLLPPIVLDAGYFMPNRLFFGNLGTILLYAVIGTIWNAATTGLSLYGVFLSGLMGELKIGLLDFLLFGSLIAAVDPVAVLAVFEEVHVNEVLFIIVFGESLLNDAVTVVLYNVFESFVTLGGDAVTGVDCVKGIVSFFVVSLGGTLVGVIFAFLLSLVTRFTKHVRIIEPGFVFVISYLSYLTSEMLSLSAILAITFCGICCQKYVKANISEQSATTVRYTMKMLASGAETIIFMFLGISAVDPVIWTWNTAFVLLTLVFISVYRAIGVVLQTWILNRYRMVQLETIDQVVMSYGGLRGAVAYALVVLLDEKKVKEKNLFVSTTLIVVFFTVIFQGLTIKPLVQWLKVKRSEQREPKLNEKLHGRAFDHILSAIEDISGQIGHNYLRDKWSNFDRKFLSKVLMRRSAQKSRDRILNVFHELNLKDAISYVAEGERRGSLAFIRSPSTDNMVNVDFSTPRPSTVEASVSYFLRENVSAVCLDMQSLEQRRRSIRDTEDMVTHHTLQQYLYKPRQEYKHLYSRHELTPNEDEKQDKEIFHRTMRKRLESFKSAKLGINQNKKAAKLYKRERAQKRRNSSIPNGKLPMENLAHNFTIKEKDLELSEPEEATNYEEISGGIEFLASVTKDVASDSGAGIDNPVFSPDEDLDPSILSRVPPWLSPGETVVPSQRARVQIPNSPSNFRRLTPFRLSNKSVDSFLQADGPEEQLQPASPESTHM

CN(CC(=O)O)CC(=O)NC(CCC(=O)NCCOCCOCCNS(=O)(=O)c1cccc([C@@H]2CN(C)Cc3c(Cl)cc(Cl)cc32)c1)(CCC(=O)NCCOCCOCCNS(=O)(=O)c1cccc([C@@H]2CN(C)Cc3c(Cl)cc(Cl)cc32)c1)CCC(=O)NCCOCCOCCNS(=O)(=O)c1cccc([C@@H]2CN(C)Cc3c(Cl)cc(Cl)cc32)c1 [compound 138]
Prompt Human NHE3 pIC50 (Human NHE3): 7.30 | Fecal Form Score average ([1]; dose 3 mg/kg): 2 | Urine Na % of control ([2]; dose 3 mg/kg): 37% | Urine P % of control ([3]; dose 3 mg/kg): 78% | Prompt Rat NHE3 pIC50 (Rat NHE3): 7.30

C/C(=C\c1cc(F)c(Oc2ccc(S(=O)(=O)NCCOCCOCCOCCNC(=O)OCCOCCOCCOC(=O)NCCOCCOCCOCCNS(=O)(=O)c3ccc(Oc4c(F)cc(/C=C(\C)C(=O)N=C(N)N)cc4F)cc3)cc2)c(F)c1)C(=O)N=C(N)N [compound 26]
Prompt Human NHE3 pIC50 (Human NHE3): 7.70 | Fecal Form Score average ([1]; dose 10 mg/kg): 1 | Urine Na % of control ([2]; dose 10 mg/kg): 78% | Urine P % of control ([3]; dose 10 mg/kg): 77% | Prompt Rat NHE3 pIC50 (Rat NHE3): 7.50

CN1Cc2c(Cl)cc(Cl)cc2[C@H](c2cccc(S(=O)(=O)NCCOCCOCCNC(=O)CCC(CCC(=O)NCCOCCOCCNS(=O)(=O)c3cccc([C@@H]4CN(C)Cc5c(Cl)cc(Cl)cc54)c3)(CCC(=O)NCCOCCOCCNS(=O)(=O)c3cccc([C@@H]4CN(C)Cc5c(Cl)cc(Cl)cc54)c3)NC(N)=O)c2)C1 [compound 133]
Prompt Human NHE3 pIC50 (Human NHE3): 7.30 | Fecal Form Score average ([1]; dose 3 mg/kg): 2 | Urine Na % of control ([2]; dose 3 mg/kg): 23% | Urine P % of control ([3]; dose 3 mg/kg): 67% | Prompt Rat NHE3 pIC50 (Rat NHE3): 6.50

O=C(NCCCCNC(=O)NCCOCCOCCNS(=O)(=O)c1ccc(O[C@H]2c3cc(Cl)cc(F)c3C[C@@H]2N2CC[C@@H](O)C2)cc1)NCCOCCOCCNS(=O)(=O)c1ccc(O[C@H]2c3cc(Cl)cc(F)c3C[C@@H]2N2CC[C@@H](O)C2)cc1 [compound 165]
Prompt Human NHE3 pIC50 (Human NHE3): 8.20 | Fecal Form Score average ([1]; dose 10 mg/kg): 1 | Urine Na % of control ([2]; dose 10 mg/kg): 104% | Urine P % of control ([3]; dose 10 mg/kg): 68% | Prompt Rat NHE3 pIC50 (Rat NHE3): <5.00

CN(C)[C@H]1Cc2c(F)cc(Cl)cc2[C@@H]1Oc1ccc(S(=O)(=O)NCCOCCOCCNC(=O)NCCCCNC(=O)NCCOCCOCCNS(=O)(=O)c2ccc(O[C@H]3c4cc(Cl)cc(F)c4C[C@@H]3N(C)C)cc2)cc1 [compound 166]
Prompt Human NHE3 pIC50 (Human NHE3): 8.40 | Fecal Form Score average ([1]; dose 10 mg/kg): 1 | Urine Na % of control ([2]; dose 10 mg/kg): 111% | Urine P % of control ([3]; dose 10 mg/kg): 43% | Prompt Rat NHE3 pIC50 (Rat NHE3): <5.00

N=C(N)Nc1nc(-c2ccc(N3CCN(CCOCCOCCOCCNC(=O)CCOCCOCCOCCOCCOCCC(=O)NCCOCCOCCOCCN4CCN(c5ccc(-c6nc(NC(=N)N)nc7ccc(Cl)cc67)cc5)CC4)CC3)cc2)c2cc(Cl)ccc2n1 [compound 24]
Prompt Human NHE3 pIC50 (Human NHE3): 8.58 | Fecal Form Score average ([1]; dose 10 mg/kg): 1 | Fecal Form Score average ([1]; dose 30 mg/kg): 3 | Urine Na % of control ([2]; dose 10 mg/kg): 100% | Urine Na % of control ([2]; dose 30 mg/kg): 27% | Urine P % of control ([3]; dose 10 mg/kg): 80% | Urine P % of control ([3]; dose 30 mg/kg): 70% | Prompt Rat NHE3 pIC50 (Rat NHE3): 7.68

CN1Cc2c(Cl)cc(Cl)cc2[C@H](c2cccc(S(=O)(=O)NCCOCCOCCNC(=O)CCC(CCC(=O)NCCOCCOCCNS(=O)(=O)c3cccc([C@@H]4CN(C)Cc5c(Cl)cc(Cl)cc54)c3)(CCC(=O)NCCOCCOCCNS(=O)(=O)c3cccc([C@@H]4CN(C)Cc5c(Cl)cc(Cl)cc54)c3)NC(=O)Cn3ccnc3)c2)C1 [compound 154]
Prompt Human NHE3 pIC50 (Human NHE3): 6.80 | Fecal Form Score average ([1]; dose 3 mg/kg): 1 | Urine Na % of control ([2]; dose 3 mg/kg): 112% | Urine P % of control ([3]; dose 3 mg/kg): 65% | Prompt Rat NHE3 pIC50 (Rat NHE3): 6.80

CN(C)[C@H]1Cc2c(Cl)cc(Cl)cc2[C@@H]1Oc1ccc(S(=O)(=O)NCCOCCOCCNC(=O)COCC(=O)NCCOCCOCCNS(=O)(=O)c2ccc(O[C@H]3c4cc(Cl)cc(Cl)c4C[C@@H]3N(C)C)cc2)cc1 [compound 149]
Prompt Human NHE3 pIC50 (Human NHE3): 8.00 | Fecal Form Score average ([1]; dose 1 mg/kg): 1 | Fecal Form Score average ([1]; dose 2 mg/kg): 2 | Fecal Form Score average ([1]; dose 3 mg/kg): 1 | Urine Na % of control ([2]; dose 1 mg/kg): 54% | Urine Na % of control ([2]; dose 2 mg/kg): 53% | Urine Na % of control ([2]; dose 3 mg/kg): 46% | Urine P % of control ([3]; dose 1 mg/kg): 122% | Urine P % of control ([3]; dose 2 mg/kg): 69% | Urine P % of control ([3]; dose 3 mg/kg): 115% | Prompt Rat NHE3 pIC50 (Rat NHE3): 8.10

O=C(NCCCCNC(=O)NCCOCCOCCNS(=O)(=O)c1ccc(O[C@H]2c3cc(Cl)cc(Cl)c3C[C@@H]2N2CC[C@@H](O)C2)cc1)NCCOCCOCCNS(=O)(=O)c1ccc(O[C@H]2c3cc(Cl)cc(Cl)c3C[C@@H]2N2CC[C@@H](O)C2)cc1 [compound 87]
Prompt Human NHE3 pIC50 (Human NHE3): 8.20 | Fecal Form Score average ([1]; dose 3 mg/kg): 1 | Urine Na % of control ([2]; dose 3 mg/kg): 54% | Urine P % of control ([3]; dose 3 mg/kg): 29% | Prompt Rat NHE3 pIC50 (Rat NHE3): <5.00

N=C(N)Nc1nc(-c2ccc(S(=O)(=O)NCCOCCOCCN)cc2)c2cc(Cl)ccc2n1 [compound 8]
Prompt Human NHE3 pIC50 (Human NHE3): 6.40 | Fecal Form Score average ([1]; dose 10 mg/kg): 1 | Fecal Form Score average ([1]; dose 30 mg/kg): 2 | Urine Na % of control ([2]; dose 10 mg/kg): 73% | Urine Na % of control ([2]; dose 30 mg/kg): 31% | Urine P % of control ([3]; dose 10 mg/kg): 101% | Urine P % of control ([3]; dose 30 mg/kg): 114% | Prompt Rat NHE3 pIC50 (Rat NHE3): 6.90

CN(C)[C@H]1Cc2c(Cl)cc(Cl)cc2[C@@H]1Oc1ccc(S(=O)(=O)NCCOCCOCCNC(=O)[C@H](O)[C@@H](O)C(=O)NCCOCCOCCNS(=O)(=O)c2ccc(O[C@H]3c4cc(Cl)cc(Cl)c4C[C@@H]3N(C)C)cc2)cc1 [compound 150]
Prompt Human NHE3 pIC50 (Human NHE3): 8.00 | Fecal Form Score average ([1]; dose 3 mg/kg): 1 | Fecal Form Score average ([1]; dose 10 mg/kg): 1 | Urine Na % of control ([2]; dose 3 mg/kg): 73% | Urine Na % of control ([2]; dose 10 mg/kg): 12% | Urine P % of control ([3]; dose 3 mg/kg): 74% | Urine P % of control ([3]; dose 10 mg/kg): 159% | Prompt Rat NHE3 pIC50 (Rat NHE3): 8.60

O=C(O)CN(CCN(CC(=O)O)CC(=O)NCCOCCOCCNS(=O)(=O)c1ccc(O[C@H]2c3ccccc3C[C@@H]2N2CCCCC2)cc1)CC(=O)NCCOCCOCCNS(=O)(=O)c1ccc(O[C@H]2c3ccccc3C[C@@H]2N2CCCCC2)cc1 [compound 65]
Prompt Human NHE3 pIC50 (Human NHE3): 8.00 | Fecal Form Score average ([1]; dose 10 mg/kg): 1 | Urine Na % of control ([2]; dose 10 mg/kg): 93% | Urine P % of control ([3]; dose 10 mg/kg): 85% | IC50 (Rat NHE3; read-out: Prompt Rat NHE3 pIC50 (converted)): 1.41 nM

CN(C)[C@H]1Cc2c(Cl)cc(Cl)cc2[C@@H]1Oc1ccc(S(=O)(=O)NCCOCCOCCNC(=O)C(C)(C)C(=O)NCCOCCOCCNS(=O)(=O)c2ccc(O[C@H]3c4cc(Cl)cc(Cl)c4C[C@@H]3N(C)C)cc2)cc1 [compound 151]
Prompt Human NHE3 pIC50 (Human NHE3): 7.50 | Fecal Form Score average ([1]; dose 3 mg/kg): 1 | Fecal Form Score average ([1]; dose 10 mg/kg): 2 | Urine Na % of control ([2]; dose 3 mg/kg): 78% | Urine Na % of control ([2]; dose 10 mg/kg): 42% | Urine P % of control ([3]; dose 3 mg/kg): 52% | Urine P % of control ([3]; dose 10 mg/kg): 121% | Prompt Rat NHE3 pIC50 (Rat NHE3): 8.30
